Measurements from patent publication US10611732B2, “HIV replication inhibiting pyrimidines” (Janssen Pharmaceutica NV, priority 2001, dated 2020).

What was measured:
HIV = assay: microbe, parasite or virus in culture; settings: for IC50: Human immunodeficiency virus 1, MT4, read-out: pIC50 (−log IC50), HIV-infected MT-4 cells (converted); for IC50 / pIC50 (−log IC50): dose achieving 50% protection, MTT, OD 540 nm; for pSI (pCC50-pIC50): selectivity index, ratio of CC50 to IC50, as log difference; for pIC50 (−log IC50): HIV-infected MT-4 cells
Protocol: (§1) A rapid, sensitive and automated assay procedure was used for the in vitro evaluation of anti-HIV agents. An […] T4-cell line, MT-4, which was previously shown (Koyanagi et al., Int. J Cancer, 36, 445-451, 1985) to be highly susceptible to and permissive for HIV infection, served as the target cell line. Inhibition of the HIV-induced cytopathic effect was used as the end point. The viability of both HIV- and mock-infected cells was assessed spectrophotometrically via the in situ reduction of 3-(4,5-dimethylthiazol-2-yl)-2,5-diphenyltetrazolium bromide (MTT). The 50% cytotoxic concentration (CC50 in M) was defined as the concentration of compound that reduced the absorbance of the mock-infected control sample by 50%. The percent protection achieved by the compound in HIV-infected cells was calculated by the following formula:
(§2) [formula] whereby (ODT)HIV is the optical density measured with a given concentration of the test compound in HIV-infected cells; (ODC)HIV is the optical density measured for the control untreated HIV-infected cells; (ODC)MOCK is the optical density measured for the control untreated mock-infected cells; all optical density values were determined at 540 nm. The dose achieving 50% protection according to the above formula was defined as the 50% inhibitory concentration (IC50 in M). The ratio of CC50 to IC50 was defined as the selectivity index (SI).
(§3) Table 6 lists the pIC50 (−log IC50), pCC50 (−log CC50) and pSI (pCC50-pIC50) values for the compounds of formula (I).

mock-infected MT-4 cells = assay: cytotoxicity in mock-infected MT-4 cells (MTT)
Protocol: as §1, §2, §3

Cc1cc(/C=C\Cl)cc(C)c1Nc1ccnc(Nc2ccc(C#N)cc2)n1
melting point: 250 °C

Cc1cc(C=C(Br)Br)cc(C)c1Nc1ccnc(Nc2ccc(C#N)cc2)n1
melting point: 223 °C

CCCCN(C)C(=O)/C=C/c1cc(C)c(Oc2ccnc(Nc3ccc(C#N)cc3)n2)c(C)c1
melting point: 212 °C

Cc1ccc(N(C)C)c(C)c1Nc1ccnc(Nc2ccc(C#N)cc2)n1
melting point: 132 °C

Cc1cc(/C=C/c2cccnc2)cc(C)c1Nc1ccnc(Nc2ccc(C#N)cc2)n1
melting point: 120 °C

Cc1cc(C(=O)CC#N)cc(C)c1Nc1ccnc(Nc2ccc(C#N)cc2)n1
melting point: 150 °C

CCOCc1ccc(Oc2ccnc(Nc3ccc(C#N)cc3)n2)c(C)c1 [Compound 105]
IC50 (HIV): 63.1 nM
pSI (pCC50-pIC50) (HIV): <−3.2
melting point: 140 °C

Cc1cc(/C=C(/C#N)C(=O)C(C)(C)C)cc(C)c1Nc1ccnc(Nc2ccc(C#N)cc2)n1 [Compound 106]
IC50 (HIV): 20 nM
pSI (pCC50-pIC50) (HIV): −2.5
melting point: 193 °C

Cc1cc(/C=C/C(=O)N(C)C)cc(C)c1Nc1ccnc(Nc2ccc(C#N)cc2)n1 [Compound 112]
IC50 (HIV): 0.794 nM
pSI (pCC50-pIC50) (HIV): −4.2
melting point: > 264 °C

Cc1cc(/C=C/C(=O)N(C)CCC#N)cc(C)c1Nc1ccnc(Nc2ccc(C#N)cc2)n1 [Compound 114]
IC50 (HIV): 2.51 nM
pSI (pCC50-pIC50) (HIV): −3.5
melting point: 168 °C

Cc1cc(-c2ccc(C#N)o2)cc(C)c1Nc1ccnc(Nc2ccc(C#N)cc2)n1 [Compound 126]
IC50 (HIV): 3.98 nM
pSI (pCC50-pIC50) (HIV): −3.5
melting point: > 260 °C

CCN(C)C(=O)/C=C/c1cc(C)c(Nc2ccnc(Nc3ccc(C#N)cc3)n2)c(C)c1 [Compound 158]
pIC50 (−log IC50) (HIV): 8
pSI (pCC50-pIC50) (HIV): −2.5
pCC50 (−log CC50) (mock-infected MT-4 cells): 5.5 M

Cc1cc(CN(C)C=NC#N)cc(C)c1Oc1ccnc(Nc2ccc(C#N)cc2)n1 [Compound 174]
pIC50 (−log IC50) (HIV): 8.8
pSI (pCC50-pIC50) (HIV): −3.5
pCC50 (−log CC50) (mock-infected MT-4 cells): 5.3 M

Cc1cc(/C=C\Br)cc(C)c1Oc1ccnc(Nc2ccc(C#N)cc2)n1 [Compound 177]
pIC50 (−log IC50) (HIV): 8.3
pSI (pCC50-pIC50) (HIV): <−4.3
pCC50 (−log CC50) (mock-infected MT-4 cells): <4.0 M

C/C(C#N)=C/c1cc(C)c(Oc2ccnc(Nc3ccc(C#N)cc3)n2)c(C)c1 [Compound 178]
pIC50 (−log IC50) (HIV): 8.8
pSI (pCC50-pIC50) (HIV): −3.1
pCC50 (−log CC50) (mock-infected MT-4 cells): 5.7 M

C/C(C#N)=C\c1cc(C)c(Oc2ccnc(Nc3ccc(C#N)cc3)n2)c(C)c1 [Compound 179]
pIC50 (−log IC50) (HIV): 8.9
pSI (pCC50-pIC50) (HIV): <−4.9
pCC50 (−log CC50) (mock-infected MT-4 cells): <4.0 M

Cc1cc(/C=C/C(=O)N(C)CC#N)cc(C)c1Oc1ccnc(Nc2ccc(C#N)cc2)n1 [Compound 212]
pIC50 (−log IC50) (HIV): 9.1
pSI (pCC50-pIC50) (HIV): −4.1
pCC50 (−log CC50) (mock-infected MT-4 cells): 5 M

CC(=CC#N)c1cc(C)c(Oc2ccnc(Nc3ccc(C#N)cc3)n2)c(C)c1 [Compound 213]
pIC50 (−log IC50) (HIV): 9
pSI (pCC50-pIC50) (HIV): −4.2
pCC50 (−log CC50) (mock-infected MT-4 cells): 4.8 M

Cc1cc(/C=C/C(=O)N(C)CCC#N)cc(C)c1Oc1ccnc(Nc2ccc(C#N)cc2)n1 [Compound 214]
pIC50 (−log IC50) (HIV): 8.6
pSI (pCC50-pIC50) (HIV): −3.5
pCC50 (−log CC50) (mock-infected MT-4 cells): 5.1 M

CCN(C)C(=O)/C=C/c1cc(C)c(Oc2ccnc(Nc3ccc(C#N)cc3)n2)c(C)c1 [Compound 215]
pIC50 (−log IC50) (HIV): 9.1
pSI (pCC50-pIC50) (HIV): −3.6
pCC50 (−log CC50) (mock-infected MT-4 cells): 5.5 M

Cc1cc(/C=C/C(=O)N(C)C)cc(C)c1Oc1ccnc(Nc2ccc(C#N)cc2)n1 [Compound 219]
pIC50 (−log IC50) (HIV): 9.1
pSI (pCC50-pIC50) (HIV): −4.1
pCC50 (−log CC50) (mock-infected MT-4 cells): 5 M

Cc1cc(CCC#N)ccc1Nc1ccnc(Nc2ccc(C#N)cc2)n1 [Compound 227]
pIC50 (−log IC50) (HIV): 9.5
pSI (pCC50-pIC50) (HIV): <−5.5
pCC50 (−log CC50) (mock-infected MT-4 cells): <4.0 M

CC(C#N)=Cc1ccc(Nc2ccnc(Nc3ccc(C#N)cc3)n2)c(C)c1 [Compound 229]
pIC50 (−log IC50) (HIV): 8.8
pSI (pCC50-pIC50) (HIV): <−4.8
pCC50 (−log CC50) (mock-infected MT-4 cells): <4.0 M

Cc1cc(/C=C/C#N)ccc1Oc1ccnc(Nc2ccc(C#N)cc2)n1 [Compound 230]
pIC50 (−log IC50) (HIV): 9.2
pSI (pCC50-pIC50) (HIV): <−5.2
pCC50 (−log CC50) (mock-infected MT-4 cells): <4.0 M

CC(C#N)=Cc1ccc(Oc2ccnc(Nc3ccc(C#N)cc3)n2)c(C)c1 [Compound 231]
pIC50 (−log IC50) (HIV): 9.2
pSI (pCC50-pIC50) (HIV): <−5.2
pCC50 (−log CC50) (mock-infected MT-4 cells): <4.0 M

CC(=CC#N)c1ccc(Oc2ccnc(Nc3ccc(C#N)cc3)n2)c(C)c1 [Compound 232]
pIC50 (−log IC50) (HIV): 8.4
pSI (pCC50-pIC50) (HIV): <−4.4
pCC50 (−log CC50) (mock-infected MT-4 cells): <4.0 M

CC(C#N)=Cc1cc(C)c(Nc2ccnc(Nc3ccc(C#N)cc3)n2)c(Cl)c1 [Compound 233]
pIC50 (−log IC50) (HIV): 9.3
pSI (pCC50-pIC50) (HIV): −3.6
pCC50 (−log CC50) (mock-infected MT-4 cells): 5.7 M

Cc1cc(CCC#N)ccc1Oc1ccnc(Nc2ccc(C#N)cc2)n1 [Compound 234]
pIC50 (−log IC50) (HIV): 8.7
pSI (pCC50-pIC50) (HIV): <−4.7
pCC50 (−log CC50) (mock-infected MT-4 cells): <4.0 M

Cc1cc(C(C)CC#N)ccc1Oc1ccnc(Nc2ccc(C#N)cc2)n1 (stereo not drawn) [Compound 235]
pIC50 (−log IC50) (HIV): 9.3
pSI (pCC50-pIC50) (HIV): <−5.3
pCC50 (−log CC50) (mock-infected MT-4 cells): <4.0 M

Cc1cc(CC(C)C#N)ccc1Oc1ccnc(Nc2ccc(C#N)cc2)n1 (stereo not drawn) [Compound 236]
pIC50 (−log IC50) (HIV): 8.8
pSI (pCC50-pIC50) (HIV): <−4.8
pCC50 (−log CC50) (mock-infected MT-4 cells): <4.0 M

Cc1cc(/C=C/C#N)ccc1Nc1ccnc(Nc2ccc(C#N)cc2)n1 [Compound 237]
pIC50 (−log IC50) (HIV): 8.9
pSI (pCC50-pIC50) (HIV): <−4.9
pCC50 (−log CC50) (mock-infected MT-4 cells): <4.0 M

Cc1cc(CC#N)cc(Cl)c1Nc1ccnc(Nc2ccc(C#N)cc2)n1 [Compound 238]
pIC50 (−log IC50) (HIV): 9.5
pSI (pCC50-pIC50) (HIV): −3.9
pCC50 (−log CC50) (mock-infected MT-4 cells): 5.6 M

Cc1cc(/C=C/C#N)cc(-c2ccco2)c1Nc1ccnc(Nc2ccc(C#N)cc2)n1 [Compound 239]
pIC50 (−log IC50) (HIV): 8.9
pSI (pCC50-pIC50) (HIV): −3.9
pCC50 (−log CC50) (mock-infected MT-4 cells): 5 M

Cc1cc(CN(C)CCC#N)cc(Br)c1Nc1ccnc(Nc2ccc(C#N)cc2)n1 [Compound 241]
pIC50 (−log IC50) (HIV): 9.4
pSI (pCC50-pIC50) (HIV): −4.1
pCC50 (−log CC50) (mock-infected MT-4 cells): 5.3 M

N#C/C=C/c1ccc(Nc2ccnc(Nc3ccc(C#N)cc3)n2)c(Br)c1 [Compound 244]
pIC50 (−log IC50) (HIV): 9.2
pSI (pCC50-pIC50) (HIV): −5.2
pCC50 (−log CC50) (mock-infected MT-4 cells): 4 M

COc1cc(/C=C/C#N)ccc1Nc1ccnc(Nc2ccc(C#N)cc2)n1 [Compound 245]
pIC50 (−log IC50) (HIV): 8.8
pSI (pCC50-pIC50) (HIV): −4.8
pCC50 (−log CC50) (mock-infected MT-4 cells): 4 M

CC(C#N)=Cc1cc(C)c(Nc2ccnc(Nc3ccc(C#N)cc3)n2)c(Br)c1 [Compound 247]
pIC50 (−log IC50) (HIV): 9.2
pSI (pCC50-pIC50) (HIV): −3
pCC50 (−log CC50) (mock-infected MT-4 cells): 6.2 M

Cc1cc(/C=C/C#N)cc(Br)c1Nc1ccnc(Nc2ccc(C#N)cc2)n1 [Compound 248]
pIC50 (−log IC50) (HIV): 9.3
pSI (pCC50-pIC50) (HIV): −3.5
pCC50 (−log CC50) (mock-infected MT-4 cells): 5.7 M

COc1cc(C=C(C)C#N)ccc1Nc1ccnc(Nc2ccc(C#N)cc2)n1 [Compound 249]
pIC50 (−log IC50) (HIV): 8.5
pSI (pCC50-pIC50) (HIV): −4.5
pCC50 (−log CC50) (mock-infected MT-4 cells): 4 M

COc1cc(CCC#N)ccc1Nc1ccnc(Nc2ccc(C#N)cc2)n1 [Compound 251]
pIC50 (−log IC50) (HIV): 8.9
pSI (pCC50-pIC50) (HIV): −3.9
pCC50 (−log CC50) (mock-infected MT-4 cells): 5 M
